One data set concerns the target T1, PI 3-kinase γ (Homo sapiens, UniProt P48736).
T1 construct: recombinant N-terminally His6-tagged, full length human enzyme; His6 (N); purchased Upstate (Dundee, UK), assay run by the vendor; host or cells: baculovirus / Sf21 insect cells
The data set is described as follows: PI 3-kinase γ inhibition assay (HTRF). In kind it is biochemical. To be noted: 100 μM MgATP; read-out: Enzyme inhibition IC50 nM (PI3-Kinase). The text has this: The measurement of PI 3-kinase γ activity is dependent upon the specific and high affinity binding of the GRP1 pleckstrin homology (PH) domain to PIP3, the product of PI 3-kinase activity. A complex is formed between europium-labelled anti-GST monoclonal antibody, a GST-tagged GRP1 PH domain, biotinylated PIP3 and streptavidin-allophycocyanin (APC). This complex generates a stable time-resolved fluorescence resonance energy transfer (FRET) signal, which is diminished by competition of PIP3, generated in the PI 3-kinase assay, with the biotinylated PIPS.
The reaction was initiated by the addition of the MgATP mix. After incubation for 30 minutes at room temperature, the reaction was stopped by the addition of 5 μl of stop solution containing EDTA and biotinylated phosphatidylinositol-3,4,5-trisphosphate. Finally, 5 μl of detection buffer was added, which contained europium-labelled anti-GST monoclonal antibody, GST-tagged GRP1 PH domain and streptavidin-APC. The plate was then read in time-resolved fluorescence mode and the homogenous time-resolved fluorescence (HTRF) signal was determined according to the formula HTRF=10000×(Em665 nm/Em620 nm).
Duplicate data points were generated from a ½ log dilution series of a stock solution of compound in DMSO. Nine dilutions steps were made from a top final concentration of 10 μM, and a ‘no compound’ blank was included. HTRF ratio data were transformed into % activity of controls and analysed with a four parameter sigmoidal dose-response (variable slope) application. The concentration giving 50% inhibition (1050) was determined.

Data set [1] deals with TNFα production in human whole blood. In words: LPS-stimulation of human whole blood, TNF-α ELISA. In kind it is cell-based. To be noted: for IC50: Homo sapiens, LPS 100 ng/ml, 6 h, read-out: Inhibition of TNFα production in human whole blood IC50; for Ratio IC50 WB/enzyme: whole blood TNFα IC50 / PI3-Kinase IC50. On the procedure: Whole blood was taken by venous puncture using heparinised vacutainers (Becton Dickinson) and diluted in an equal volume of RPMI1640 tissue culture media. 100 μl was plated in V-bottomed 96 well tissue culture plates. Inhibitor was added in 100 μl of RPMI1640 media, and 2 h later the blood was stimulated with LPS (E coli strain 005:B5, Sigma) at a final concentration of 100 ng/ml and incubated at 37° C. in 5% CO2 for 6 h. TNF-α levels were measured from cell-free supernatants by sandwich ELISA (R&D Systems #QTA00B).

Data set [2] has as its system HDAC - Hela cell nuclear extract. In words: Histone deacetylase inhibitory activity assay (Fluor de Lys). The class given is biochemical. To be noted: read-out: Enzyme inhibition IC50 nM (HDAC - Hela cell nuclear extract). On the procedure: The ability of compounds to inhibit histone deacetylase activities was measured using the commercially available HDAC fluorescent activity assay from Biomol. […] Histone deacetylase activity from crude nuclear extract derived from HeLa cells was used for screening. The preparation, purchased from 4C (Seneffe, Belgium), was prepared from HeLa cells harvested whilst in exponential growth phase. […] Acid. […] The final buffer composition was 20 mM Hepes, 100 mM KCl, 0.2 mM EDTA, 0.5 mM DTT, 0.2 mM PMSF and 20% (v/v) glycerol.

Data set [3] has as its system U937 cells (monocytic cell line). In words: Cell proliferation inhibition assay (WST-1), U937. In kind it is cell-based. To be noted: for IC50: Homo sapiens, U-937, read-out: Cell proliferation IC50 nM (U937 cells); for selectivity between a monocytic and non-monocytic cell line (cell proliferation): U937 versus HCT116. The method, then:
(§1) Following 24 h of growth cells were treated with compound. Plates were then re-incubated for a further 72-96 h before a WST-1 cell viability assay was conducted according to the suppliers (Roche Applied Science) instructions.
(§2) Data were expressed as a percentage inhibition of the control, measured in the absence of inhibitor, as follows: —
(§3) where S^i is the signal in the presence of inhibitor and S^o is the signal in the presence of DMSO.
(§4) Dose response curves were generated from 8 concentrations (top final concentration 10 μM, with 3-fold dilutions), using 6 replicates.

Data set [4] has as its system HCT116 (non-monocytic cell line). In words: Cell proliferation inhibition assay (WST-1), HCT116. In kind it is cell-based. To be noted: for Ratio IC50 cell/enzyme: HCT116 cell proliferation IC50 / DHFR enzyme IC50; for IC50: Homo sapiens, HCT-116, HCT116 non-monocytic cell line, read-out: Cell proliferation IC50 nM (HCT116). The method, then: as §1, §2, §3, §4
Data set [5] concerns carboxylesterase (U937 cell extract). The data set is described as follows: Broken cell carboxylesterase assay, U937 cell extract. In kind it is in vitro ADME. To be noted: U937 versus HCT116. The method, then: U937 or HCT 116 tumour cells (˜10^9) were washed in 4 volumes of Dulbeccos PBS (˜1 litre) and pelleted at 525 g for 10 min at 4° C. This was repeated twice and the final cell pellet was resuspended in 35 ml of cold homogenising buffer (Trizma 10 mM, NaCl 130 mM, CaCl2 0.5 mM pH 7.0 at 25° C.). Homogenates were prepared by nitrogen cavitation (700 psi for 50 min at 4° C.). The homogenate was kept on ice and supplemented with a cocktail of inhibitors at final concentrations of: • Leupeptin 1 μM • Aprotinin 0.1 μM • E64 8 μM • Pepstatin 1.5 μM • Bestatin 162 μM • Chymostatin 33 μM
After clarification of the cell homogenate by centrifugation at 525 g for 10 min, the resulting supernatant was used as a source of esterase activity and was stored at −80° C. until required.
Hydrolysis of esters to the corresponding carboxylic acids can be measured using the cell extract, prepared as above. To this effect cell extract (˜30 μg/total assay volume of 0.5 ml) was incubated at 37° C. in a Tris-HCl 25 mM, 125 mM NaCl buffer, pH 7.5 at 25° C. At zero time the ester (substrate) was then added at a final concentration of 2.5 μM and the samples were incubated at 37° C. for the appropriate time (usually 0 or 80 min). […] After centrifugation at 12000 g for 5 min, samples were analysed for the ester and its corresponding carboxylic acid at room temperature by LCMS (Sciex API 3000, HP1100 binary pump, CTC PAL). […]

Setting [6] is: U937 cell proliferation IC50 / DHFR enzyme IC50.

T1 sequence (P48736 whole entry): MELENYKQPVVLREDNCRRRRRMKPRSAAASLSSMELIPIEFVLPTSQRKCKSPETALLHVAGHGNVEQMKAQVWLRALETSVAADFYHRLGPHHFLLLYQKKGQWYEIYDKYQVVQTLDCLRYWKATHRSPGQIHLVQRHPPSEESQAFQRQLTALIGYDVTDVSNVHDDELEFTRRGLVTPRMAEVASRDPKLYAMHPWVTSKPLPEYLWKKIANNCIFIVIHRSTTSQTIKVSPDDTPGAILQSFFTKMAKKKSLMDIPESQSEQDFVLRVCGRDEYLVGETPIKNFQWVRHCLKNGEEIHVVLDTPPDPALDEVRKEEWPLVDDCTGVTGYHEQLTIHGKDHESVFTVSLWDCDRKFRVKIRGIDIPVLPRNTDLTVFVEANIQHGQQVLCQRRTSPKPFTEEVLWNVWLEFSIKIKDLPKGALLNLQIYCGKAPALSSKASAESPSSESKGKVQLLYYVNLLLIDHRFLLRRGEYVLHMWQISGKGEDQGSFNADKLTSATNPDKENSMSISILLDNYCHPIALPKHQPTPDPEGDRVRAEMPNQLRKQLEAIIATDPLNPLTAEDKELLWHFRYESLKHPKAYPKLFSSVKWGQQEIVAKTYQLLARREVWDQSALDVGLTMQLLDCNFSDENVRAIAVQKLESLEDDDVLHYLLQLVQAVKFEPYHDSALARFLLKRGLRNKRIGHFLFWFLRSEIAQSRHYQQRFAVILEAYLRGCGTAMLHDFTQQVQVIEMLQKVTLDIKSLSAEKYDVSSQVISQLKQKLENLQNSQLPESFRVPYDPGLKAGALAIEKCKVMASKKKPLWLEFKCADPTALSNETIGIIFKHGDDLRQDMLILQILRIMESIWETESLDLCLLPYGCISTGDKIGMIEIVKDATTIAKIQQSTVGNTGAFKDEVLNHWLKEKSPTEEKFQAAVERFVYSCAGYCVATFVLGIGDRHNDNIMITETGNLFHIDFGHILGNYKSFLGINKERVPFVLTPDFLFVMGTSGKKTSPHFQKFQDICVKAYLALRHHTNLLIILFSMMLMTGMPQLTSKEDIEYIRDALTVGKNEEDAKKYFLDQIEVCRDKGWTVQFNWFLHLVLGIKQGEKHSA

As to `CC(=O)Nc1nc(C)c(-c2ccc(Cl)c(S(C)(=O)=O)c2)s1` [Compound 20, N-[5-(4-Chloro-3-methanesulfonyl-phenyl)-4-methyl-thiazol-2-yl]-acetamide, reference compound], the IC50 on PI 3-kinase γ came to 500 nM. Further, in data set [1], the IC50 worked out at 8500 nM and the “Ratio IC50 WB/enzyme” value is 17.

As for `Cc1nc(NC(=O)CC[C@H](N)C(=O)OC(C)(C)C)sc1-c1ccc(Cl)c(S(C)(=O)=O)c1` [Compound 23, (S)-2-Amino-4-[5-(4-chloro-3-methanesulfonyl-phenyl)-4-methyl-thiazol-2-ylcarbamoyl]-butyric acid tert-butyl ester], the IC50 at PI 3-kinase γ is 7100 nM. In addition, in data set [1], the IC50 turned out to be 5200 nM and the “Ratio IC50 WB/enzyme” value is recorded as 0.75.

For the compound `Cc1nc(NC(=O)CC[C@H](N)C(=O)OC2CCCC2)sc1-c1ccc(Cl)c(S(C)(=O)=O)c1` [Compound 21, (S)-2-Amino-4-[5-(4-chloro-3-methanesulfonyl-phenyl)-4-methyl-thiazol-2-ylcarbamoyl]-butyric acid cyclopentyl ester], the IC50 worked out at 2700 nM at PI 3-kinase γ and 400 nM in data set [1]. Besides, in data set [1], the “Ratio IC50 WB/enzyme” value is 0.15.

Consider `O=C(CCCCCCC(=O)Nc1cccc(CN[C@H](C(=O)OC2CCCC2)c2ccccc2)c1)NO` [Compound 8, (S)-[3-(7-Hydroxycarbamoyl-heptanoylamino)-benzylamino]-phenyl-acetic acid cyclopentyl ester], for which the IC50 in data set [2] stood at 100 nM; in data set [3] (U937 monocytic cell line), 50 nM. Besides, the “Ratio IC50 cell/enzyme” value in data set [3] (U937 cell proliferation IC50 / HDAC enzyme IC50) is given as 0.5.

`Cc1c(CNc2ccc(CN[C@@H](CC(C)C)C(=O)OC3CCCC3)cc2)cnc2nc(N)nc(N)c12` [Compound 5, (S)-2-{4-[(2,4-Diamino-5-methyl-pyrido[2,3-d]pyrimidin-6-ylmethyl)-amino]-benzylamino}-4-methyl-pentanoic acid cyclopentyl ester]: the IC50 in data set [3] (U937 monocytic cell line) turned out to be 310 nM; in data set [4], 6700 nM. The “Ratio IC50 cell/enzyme” value is on record as 0.8 in data set [3] (setting [6]) and 1.7 in data set [4]. In addition, the “selectivity between a monocytic and non-monocytic cell line (cell proliferation)” value in data set [3] is on record as “significantly more anti-proliferative in monocytic cell lines then non-monocytic cell lines”. Further, the “cleavage of ester in monocytic versus non-monocytic cell lines” value in data set [5] was “selective cleavage in monocytic but not non-monocytic cell lines”.

`O=C(CCCCCCC(=O)Nc1cccc(CN[C@H](C(=O)O)c2ccccc2)c1)NO` [Compound 9, (S)-[3-(7-Hydroxycarbamoyl-heptanoylamino)-benzylamino]-phenyl-acetic acid]: in data set [2], the IC50 came to 70 nM. Besides, the “Cell proliferation IC50 nM (U937 cells)” value in data set [3] (U937 monocytic cell line) is reported as “Inactive”.

In the case of `Cc1c(CNc2ccc(OCC[C@H](NC3CCCCC3)C(=O)OC3CCCC3)cc2)cnc2nc(N)nc(N)c12` [Compound 4, (S)-2-Cyclohexylamino-4-{4-[(2,4-diamino-5-methyl-pyrido[2,3-d]pyrimidin-6-ylmethyl)-amino]-phenoxy}-butyric acid cyclopentyl ester], the values for the IC50 in data set [3] (U937 monocytic cell line) and in data set [4] were 310 nM and 6900 nM, respectively. The entries for the “Ratio IC50 cell/enzyme” value in data set [3] (setting [6]) and in data set [4] were 0.3 and 6.6, respectively. The “selectivity between a monocytic and non-monocytic cell line (cell proliferation)” value in data set [3] is “significantly more anti-proliferative in monocytic cell lines then non-monocytic cell lines”. In data set [5], the “cleavage of ester in monocytic versus non-monocytic cell lines” value was “selective cleavage in monocytic but not non-monocytic cell lines”.

As to `Cc1nc(NC(=O)CC[C@H](N)C(=O)O)sc1-c1ccc(Cl)c(S(C)(=O)=O)c1` [Compound 22, (S)-2-Amino-4-[5-(4-chloro-3-methanesulfonyl-phenyl)-4-methyl-thiazol-2-ylcarbamoyl]-butyric acid], the IC50 on PI 3-kinase γ was found to be 3600 nM.

The record behind these values is patent US20150126534A1, “ENZYME AND RECEPTOR MODULATION” (Chroma Therapeutics Ltd, priority 2005, published 2015).
